Values of other authors, collected in patent US10351563B2, “Biaryl kinase inhibitors” (BRISTOL-MYERS SQUIBB COMPANY, priority 2014, dated 2019).

Assays:
[1] = target: AAK1 (Homo sapiens (Human), UniProt Q2M2I8)
[2] = test system: PC12 cells
[3] = test system: HCV; conditions: Huh-7.5 cells

Chain of AAK1 (Q2M2I8 whole entry, species assumed): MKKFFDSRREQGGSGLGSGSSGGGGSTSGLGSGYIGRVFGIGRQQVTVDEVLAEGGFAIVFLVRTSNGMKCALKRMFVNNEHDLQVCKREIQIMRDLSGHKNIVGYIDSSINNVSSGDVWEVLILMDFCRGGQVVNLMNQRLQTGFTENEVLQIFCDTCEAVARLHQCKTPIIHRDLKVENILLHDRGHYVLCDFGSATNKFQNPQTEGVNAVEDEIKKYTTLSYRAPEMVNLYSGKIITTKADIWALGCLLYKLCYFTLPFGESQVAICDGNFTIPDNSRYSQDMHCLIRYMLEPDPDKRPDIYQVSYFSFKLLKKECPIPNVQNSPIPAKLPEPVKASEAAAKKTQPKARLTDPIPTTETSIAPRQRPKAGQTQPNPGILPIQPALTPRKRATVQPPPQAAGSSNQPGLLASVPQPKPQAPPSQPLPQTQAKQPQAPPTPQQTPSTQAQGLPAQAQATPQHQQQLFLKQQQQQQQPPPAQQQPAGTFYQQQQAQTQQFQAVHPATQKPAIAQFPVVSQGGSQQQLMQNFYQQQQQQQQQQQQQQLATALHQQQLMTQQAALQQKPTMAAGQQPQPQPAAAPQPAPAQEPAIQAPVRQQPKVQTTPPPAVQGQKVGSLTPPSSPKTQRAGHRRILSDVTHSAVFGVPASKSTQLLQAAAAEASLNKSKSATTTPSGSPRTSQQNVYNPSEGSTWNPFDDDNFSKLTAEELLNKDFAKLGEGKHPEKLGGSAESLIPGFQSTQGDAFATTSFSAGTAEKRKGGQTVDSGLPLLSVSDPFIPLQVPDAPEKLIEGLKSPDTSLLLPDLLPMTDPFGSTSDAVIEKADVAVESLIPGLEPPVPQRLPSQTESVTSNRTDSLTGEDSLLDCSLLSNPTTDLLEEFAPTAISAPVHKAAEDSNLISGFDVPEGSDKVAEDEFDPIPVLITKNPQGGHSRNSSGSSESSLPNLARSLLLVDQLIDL

**Q.** Which “AAK1 kinase activity inhibition” value [1] does the source give for `COC(=O)[C@@]1(O)C[C@H]2O[C@]1(C)n1c3ccccc3c3c4c(c5c6ccccc6n2c5c31)C(=O)NC4` [Example K252a, K252a] here?
**A.** Its value is “inhibits AAK1 kinase activity”.

**Q.** And the “Neuregulin-1 induced neurite outgrowth” value [2]?
**A.** Its value is “potentiation of Neuregulin-1 induced neurite outgrowth”.

**Q.** With `CCN(CC)CCNC(=O)c1c(C)[nH]c(/C=C2\C(=O)Nc3ccc(F)cc32)c1C` [sunitinib] as the molecule, how does the “AAK1 kinase activity inhibition” value [1] read?
**A.** Its value is “potent AAK1 inhibitor”.

**Q.** What about the HCV entry [3] of the same molecule?
**A.** The HCV entry was “inhibit HCV entry”.

**Q.** What about the HCV virion assembly [3] of the same molecule?
**A.** Its HCV virion assembly is “reduced HCV virion assembly”.
